Common to all, as to assay type: cell-based
Assay [1] addresses T1, LAT1 (L-type amino acid transporter 1) (Rattus norvegicus, UniProt Q63016).
T1 construct: gene Slc7a5; endogenous LAT1 in TR-BBB cells
The assay can be described thus: competitive inhibition of [3H]L-tryptophan uptake in TR-BBB cells (Lineweaver-Burk).

Assay [2] deals with T2, LAT1 (L-type amino acid transporter 1) (Mus musculus, UniProt Q9Z127).
T2 construct: gene Slc7a5; endogenous LAT1 in NSC-34 (hSOD1^WT) cells
Put plainly: radiolabelled uptake kinetics (Km) in NSC-34 cells, with LAT1 siRNA knockdown. The source says:
radiolabelled uptake kinetics (Km) in NSC-34 cells, with LAT1 siRNA knockdown on LAT1 (L-type amino acid transporter 1) | LAT1 mRNA expression and tryptophan uptake results indicated significant depletion effect in LAT1 siRNA-transfected WT and MT cell lines

Assay [3] concerns the target T1, LAT1 (L-type amino acid transporter 1). The assay can be described thus: inhibition of [3H]L-tryptophan uptake in TR-BBB cells at […] ([…] of control). The following applies: read-out: Relative Uptake / (% of Control).

Where two headings read alike, the source gives them in different places.

T1 sequence (Q63016 whole entry): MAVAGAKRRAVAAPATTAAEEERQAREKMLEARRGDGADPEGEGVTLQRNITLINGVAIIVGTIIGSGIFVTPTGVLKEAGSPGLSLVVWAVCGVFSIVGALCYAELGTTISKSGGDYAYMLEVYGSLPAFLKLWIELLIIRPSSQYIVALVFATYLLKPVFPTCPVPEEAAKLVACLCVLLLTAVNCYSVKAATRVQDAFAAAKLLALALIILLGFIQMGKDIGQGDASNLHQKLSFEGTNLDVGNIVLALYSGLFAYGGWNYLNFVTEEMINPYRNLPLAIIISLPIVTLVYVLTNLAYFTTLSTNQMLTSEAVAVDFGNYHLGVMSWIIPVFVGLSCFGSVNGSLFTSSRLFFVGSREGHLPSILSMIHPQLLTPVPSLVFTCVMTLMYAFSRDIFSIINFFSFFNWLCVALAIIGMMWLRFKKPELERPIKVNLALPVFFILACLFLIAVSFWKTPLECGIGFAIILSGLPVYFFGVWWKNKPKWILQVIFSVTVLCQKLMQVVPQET
T2 sequence (Q9Z127 whole entry): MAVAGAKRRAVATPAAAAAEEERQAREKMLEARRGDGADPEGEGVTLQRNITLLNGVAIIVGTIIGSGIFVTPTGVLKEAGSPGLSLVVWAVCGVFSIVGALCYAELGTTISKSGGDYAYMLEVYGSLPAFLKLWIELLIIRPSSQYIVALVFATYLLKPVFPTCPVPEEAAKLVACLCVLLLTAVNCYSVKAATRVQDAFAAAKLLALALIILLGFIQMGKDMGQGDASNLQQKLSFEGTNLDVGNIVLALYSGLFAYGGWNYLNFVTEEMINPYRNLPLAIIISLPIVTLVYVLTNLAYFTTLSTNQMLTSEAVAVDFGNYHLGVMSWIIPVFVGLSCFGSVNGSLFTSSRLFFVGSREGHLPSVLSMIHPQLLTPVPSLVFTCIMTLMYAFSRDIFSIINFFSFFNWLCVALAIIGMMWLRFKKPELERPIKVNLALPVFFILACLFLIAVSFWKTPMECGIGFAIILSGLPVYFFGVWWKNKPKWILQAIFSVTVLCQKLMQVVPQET

Consider `NCC1(CC(=O)O)CCCCC1` [Gabapentin], for which the Ki in assay [1] turned out to be 210 µM.

In the case of `NCC(CC(=O)O)c1ccc(Cl)cc1` (stereo not shown) [Baclofen], the Ki in assay [1] (read-out: Ki) stood at 1620 µM.

For the compound `N[C@@H](Cc1c[nH]c2ccccc12)C(=O)O` [L-tryptophan], in assay [2], the Km is 33.1 ± 1.2 µM.

Regarding `NC1(C(=O)O)CC2CCC1C2` (stereo not shown) [BCH], the remaining activity at 2000 µM in assay [3] worked out at 21 ± 1.3%.

One may read the Ki as a dissociation constant, usually derived from enzyme kinetics or from competition with a known ligand. The term Km denotes the substrate concentration at which the rate is half of its maximum.

Source of the values: PMC7823355, “Pretreatment Effect of Inflammatory Stimuli and Characteristics of Tryptophan Transport on Brain Capillary Endothelial (TR-BBB) and Motor Neuron Like (NSC-34) Cell Lines” (Biomedicines, 2020).
